Values quoted from earlier work in patent publication US20070141027A1, “Non-lethal conditioning methods for conditioning a recipient for bone marrow transplantation” (UNIVERSITY OF LOUISVILLE RESEARCH FOUNDATION INC., priority 2003, published 2007).

System: mice
Details: reduced from 700 cGy TBI alone; CyP 200 mg/kg i.p. 2 days after BMT; ALG or anti-CD8 on day -3 added to it

O=P1(N(CCCl)CCCl)NCCCO1 (stereo not shown) [cyclophosphamide (CyP), cyclophosphamide]
TBI dose for allogeneic marrow engraftment: 500 cGy
